# Assay results from patent US5064954A, “Process for producing halomethylcarbapenems” (Shionogi & Co., Ltd., priority 1990, dated 1991).
# Structures can show the parent of a compound that is named as a salt.
# Experiments:
# Assay type in all cases: cell-based
# Ps. aeruginosa SR-24 = test: MIC against Ps. aeruginosa SR-24; settings: Pseudomonas aeruginosa, SR24
# Excerpt: |MIC: μg/ml (inoculum size = 10^5 /ml) |P = Ps. aeruginosa SR-24
# S. aureus Smith = test: MIC against S. aureus Smith; settings: Staphylococcus aureus
# Excerpt: |MIC: μg/ml (inoculum size = 10^5 /ml) |S = S. aureus Smith
# E. coli EC-14 = test: MIC against E. coli EC-14; settings: Escherichia coli, EC14
# Excerpt: |MIC: μg/ml (inoculum size = 10^5 /ml) |E = E. coli EC-14
# [1] = Table I, P = Ps. aeruginosa SR-24, inoculum size = 10^5 /ml
# [2] = Table I, S = S. aureus Smith, inoculum size = 10^5 /ml
# [3] = Table I, E = E. coli EC-14, inoculum size = 10^5 /ml
# [4] = Table II, P (key, unit and inoculum given only in Table I)
# [5] = Table II, S (key, unit and inoculum given only in Table I)
# [6] = Table II, E (key, unit and inoculum given only in Table I)
# [7] = Table III, P (key, unit and inoculum given only in Table I)
# [8] = Table III, S (key, unit and inoculum given only in Table I)
# [9] = Table III, E (key, unit and inoculum given only in Table I)
SMILES,MIC (Ps. aeruginosa SR-24; [1]),MIC (S. aureus Smith; [2]),MIC (E. coli EC-14; [3]),other results
CC(O)[C@H]1C(=O)N2C(C(=O)[O-])=C(C[n+]3ccsc3)[C@H](C)[C@H]12 (stereo partly drawn) [Table I No. 1],3.13 µg/mL,0.025 µg/mL,0.1 µg/mL,–
CC(O)[C@H]1C(=O)N2C(C(=O)[O-])=C(C[n+]3ccsc3N)[C@H](C)[C@H]12 (stereo partly drawn) [Table I No. 2],6.25 µg/mL,0.0125 µg/mL,0.78 µg/mL,–
"CC(O)[C@H]1C(=O)N2C(C(=O)[O-])=C(C[n+]3ccccc3)[C@H](C)[C@H]12 (stereo partly drawn) [Table I No. 3, 1β-methyl-2-pyridiniomethyl-6α-(1-hydroxyethyl)-1-carba-2-penem-4-carboxylate]",1.56 µg/mL,0.0125 µg/mL,0.1 µg/mL,–
Cc1cccc[n+]1CC1=C(C(=O)[O-])N2C(=O)[C@H](C(C)O)[C@H]2[C@H]1C (stereo partly drawn) [Table I No. 4],3.13 µg/mL,0.025 µg/mL,0.2 µg/mL,–
Cc1ccc[n+](CC2=C(C(=O)[O-])N3C(=O)[C@H](C(C)O)[C@H]3[C@H]2C)c1 (stereo partly drawn) [Table I No. 5],1.56 µg/mL,0.025 µg/mL,0.2 µg/mL,–
Cc1cc[n+](CC2=C(C(=O)[O-])N3C(=O)[C@H](C(C)O)[C@H]3[C@H]2C)cc1 (stereo partly drawn) [Table I No. 6],3.13 µg/mL,0.025 µg/mL,0.39 µg/mL,–
CCc1cc[n+](CC2=C(C(=O)[O-])N3C(=O)[C@H](C(C)O)[C@H]3[C@H]2C)cc1 (stereo partly drawn) [Table I No. 7],3.13 µg/mL,0.025 µg/mL,0.39 µg/mL,–
CC(O)[C@H]1C(=O)N2C(C(=O)[O-])=C(C[n+]3cccc4c3CCC4)[C@H](C)[C@H]12 (stereo partly drawn) [Table I No. 8],6.25 µg/mL,0.025 µg/mL,0.2 µg/mL,–
CC(O)[C@H]1C(=O)N2C(C(=O)[O-])=C(C[n+]3cccc(CN)c3)[C@H](C)[C@H]12 (stereo partly drawn) [Table I No. 9],3.13 µg/mL,0.05 µg/mL,0.78 µg/mL,–
CC(O)[C@H]1C(=O)N2C(C(=O)[O-])=C(C[n+]3ccc(CN)cc3)[C@H](C)[C@H]12 (stereo partly drawn) [Table I No. 10],3.13 µg/mL,0.05 µg/mL,0.78 µg/mL,–
CC(O)[C@H]1C(=O)N2C(C(=O)[O-])=C(C[n+]3cccc(CNC=O)c3)[C@H](C)[C@H]12 (stereo partly drawn) [Table I No. 11],3.13 µg/mL,0.05 µg/mL,0.78 µg/mL,–
CCC(=O)c1cc[n+](CC2=C(C(=O)[O-])N3C(=O)[C@H](C(C)O)[C@H]3[C@H]2C)cc1 (stereo partly drawn) [Table I No. 13],3.13 µg/mL,0.05 µg/mL,0.76 µg/mL,–
CC(O)[C@H]1C(=O)N2C(C(=O)[O-])=C(C[n+]3cccc(C(N)=O)c3)[C@H](C)[C@H]12 (stereo partly drawn) [Table I No. 14],1.56 µg/mL,0.025 µg/mL,0.39 µg/mL,–
CC(O)[C@H]1C(=O)N2C(C(=O)[O-])=C(C[n+]3ccc(C(N)=O)cc3)[C@H](C)[C@H]12 (stereo partly drawn) [Table I No. 15],1.56 µg/mL,0.025 µg/mL,0.39 µg/mL,–
CC(O)[C@H]1C(=O)N2C(C(=O)[O-])=C(C[n+]3cccc(-c4cnco4)c3)[C@H](C)[C@H]12 (stereo partly drawn) [Table I No. 16],1.56 µg/mL,0.025 µg/mL,0.2 µg/mL,–
CC(O)[C@H]1C(=O)N2C(C(=O)[O-])=C(C[n+]3ccc(-c4ncco4)cc3)[C@H](C)[C@H]12 (stereo partly drawn) [Table I No. 17],3.13 µg/mL,0.025 µg/mL,0.2 µg/mL,–
CC(O)[C@H]1C(=O)N2C(C(=O)[O-])=C(C[n+]3ccc(-c4cnco4)cc3)[C@H](C)[C@H]12 (stereo partly drawn) [Table I No. 18],6.25 µg/mL,0.025 µg/mL,0.39 µg/mL,–
CC(O)[C@H]1C(=O)N2C(C(=O)[O-])=C(C[n+]3cccc(N)c3)[C@H](C)[C@H]12 (stereo partly drawn) [Table I No. 19],1.56 µg/mL,0.0125 µg/mL,0.2 µg/mL,–
CC(O)[C@H]1C(=O)N2C(C(=O)[O-])=C(C[n+]3ccc(N)cc3)[C@H](C)[C@H]12 (stereo partly drawn) [Table I No. 20],6.25 µg/mL,0.0125 µg/mL,0.2 µg/mL,–

SMILES,MIC (Ps. aeruginosa SR-24; [1]),MIC (S. aureus Smith; [2]),MIC (E. coli EC-14; [3]),other results
CC(O)[C@H]1C(=O)N2C(C(=O)[O-])=C(C[n+]3ccc(N)c(N)c3)[C@H](C)[C@H]12 (stereo partly drawn) [Table I No. 21],3.13 µg/mL,0.0125 µg/mL,0.2 µg/mL,–
CC(O)[C@H]1C(=O)N2C(C(=O)[O-])=C(C[n+]3ccc(N(C)C)cc3)[C@H](C)[C@H]12 (stereo partly drawn) [Table I No. 22],3.13 µg/mL,0.0125 µg/mL,0.1 µg/mL,–
CC(O)[C@H]1C(=O)N2C(C(=O)[O-])=C(C[n+]3cccc(O)c3)[C@H](C)[C@H]12 (stereo partly drawn) [Table I No. 23],12.5 µg/mL,0.05 µg/mL,0.2 µg/mL,–
COc1ccc[n+](CC2=C(C(=O)[O-])N3C(=O)[C@H](C(C)O)[C@H]3[C@H]2C)c1 (stereo partly drawn) [Table I No. 24],3.13 µg/mL,0.025 µg/mL,0.39 µg/mL,–
COc1cc[n+](CC2=C(C(=O)[O-])N3C(=O)[C@H](C(C)O)[C@H]3[C@H]2C)cc1 (stereo partly drawn) [Table I No. 25],3.13 µg/mL,0.025 µg/mL,0.39 µg/mL,–
CSc1ccc[n+](CC2=C(C(=O)[O-])N3C(=O)[C@H](C(C)O)[C@H]3[C@H]2C)c1 (stereo partly drawn) [Table I No. 26],3.13 µg/mL,0.0125 µg/mL,0.39 µg/mL,–
CSc1cc[n+](CC2=C(C(=O)[O-])N3C(=O)[C@H](C(C)O)[C@H]3[C@H]2C)cc1 (stereo partly drawn) [Table I No. 27],3.13 µg/mL,0.025 µg/mL,0.2 µg/mL,–
CC(O)[C@H]1C(=O)N2C(C(=O)[O-])=C(C[n+]3cccc(F)c3)[C@H](C)[C@H]12 (stereo partly drawn) [Table I No. 28],3.13 µg/mL,0.025 µg/mL,0.39 µg/mL,–
CC(O)[C@H]1C(=O)N2C(C(=O)[O-])=C(C[N+]3(C)CCCC3)[C@H](C)[C@H]12 (stereo partly drawn) [Table II No. 1],–,–,–,MIC (Ps. aeruginosa SR-24; [4]): 3.13 µg/mL; MIC (S. aureus Smith; [5]): 0.025 µg/mL; MIC (E. coli EC-14; [6]): 0.1 µg/mL
CC(O)[C@H]1C(=O)N2C(C(=O)[O-])=C(C[N+]3(CC(N)=O)CCCC3)[C@H](C)[C@H]12 (stereo partly drawn) [Table II No. 2],–,–,–,MIC (Ps. aeruginosa SR-24; [4]): 12.5 µg/mL; MIC (S. aureus Smith; [5]): 0.1 µg/mL; MIC (E. coli EC-14; [6]): 0.2 µg/mL
CC(O)[C@H]1C(=O)N2C(C(=O)[O-])=C(C[N+]3(CC(=O)O)CCCC3)[C@H](C)[C@H]12 (stereo partly drawn) [Table II No. 3],–,–,–,MIC (Ps. aeruginosa SR-24; [4]): 50 µg/mL; MIC (S. aureus Smith; [5]): 0.39 µg/mL; MIC (E. coli EC-14; [6]): 0.39 µg/mL
"CC(O)[C@H]1C(=O)N2C(C(=O)[O-])=C(C[N+]3(C)CCCCC3)[C@H](C)[C@H]12 (stereo partly drawn) [Table II No. 4, 1β-methyl-2-(1-methylpiperidinio-1-yl)methyl-6α-(1-hydroxyethyl)-1-carba-2-penem-4-carboxylate]",–,–,–,MIC (Ps. aeruginosa SR-24; [4]): 3.13 µg/mL; MIC (S. aureus Smith; [5]): 0.025 µg/mL; MIC (E. coli EC-14; [6]): 0.1 µg/mL
"CC(O)[C@H]1C(=O)N2C(C(=O)[O-])=C(C[N+]34CCC(CC3)CC4)[C@H](C)[C@H]12 (stereo partly drawn) [Table II No. 5, 1β-methyl-2-(quinuclidinio-1-yl)-methyl-6α-(1-hydroxyethyl)-1-carba-2-penem-4-carboxylate]",–,–,–,MIC (Ps. aeruginosa SR-24; [4]): 6.25 µg/mL; MIC (S. aureus Smith; [5]): 0.025 µg/mL; MIC (E. coli EC-14; [6]): 0.2 µg/mL
CC(O)[C@H]1C(=O)N2C(C(=O)[O-])=C(C[N+]34CCN(CC3)CC4)[C@H](C)[C@H]12 (stereo partly drawn) [Table II No. 6],–,–,–,MIC (Ps. aeruginosa SR-24; [4]): 6.25 µg/mL; MIC (S. aureus Smith; [5]): 0.1 µg/mL; MIC (E. coli EC-14; [6]): 0.39 µg/mL
CC(O)[C@H]1C(=O)N2C(C(=O)[O-])=C(CN[n+]3ccccc3)[C@H](C)[C@H]12 (stereo partly drawn) [Table III No. 1],–,–,–,MIC (Ps. aeruginosa SR-24; [7]): 12.5 µg/mL; MIC (S. aureus Smith; [8]): 0.025 µg/mL; MIC (E. coli EC-14; [9]): 0.39 µg/mL
CC(O)[C@H]1C(=O)N2C(C(=O)O)=C(CN3CCCC3)[C@H](C)[C@H]12 (stereo partly drawn) [Table III No. 2],–,–,–,MIC (Ps. aeruginosa SR-24; [7]): 12.5 µg/mL; MIC (S. aureus Smith; [8]): 0.0125 µg/mL; MIC (E. coli EC-14; [9]): 0.39 µg/mL
CC(O)[C@H]1C(=O)N2C(C(=O)O)=C(CN3CCC(N)C3)[C@H](C)[C@H]12 (stereo partly drawn) [Table III No. 3],–,–,–,MIC (Ps. aeruginosa SR-24; [7]): 3.13 µg/mL; MIC (S. aureus Smith; [8]): 0.05 µg/mL; MIC (E. coli EC-14; [9]): 0.78 µg/mL
"CC(O)[C@H]1C(=O)N2C(C(=O)O)=C(CN3CCCCC3)[C@H](C)[C@H]12 (stereo partly drawn) [Table III No. 4, 1β-methyl-2-(piperidin-1-yl)methyl-6α-(1-hydroxyethyl)-1-carba-2-penem-4-carboxylic acid sodium salt]",–,–,–,MIC (Ps. aeruginosa SR-24; [7]): 50 µg/mL; MIC (S. aureus Smith; [8]): 0.0125 µg/mL; MIC (E. coli EC-14; [9]): 1.56 µg/mL
